Data published in PMC6199744, “Development of Chemical Proteomics for the Folateome and Analysis of the Kinetoplastid Folateome” (ACS Infectious Diseases, 2018).
Read-outs that look alike come from different tables or passages of the source.

Legend:
Format in all cases: binding
[1] = target: T1, HeLa cell extract proteins (Homo sapiens, UniProt O00330)
T1 construct: endogenous in cells; host or cells: HeLa cell extract
T1 sequence (O00330 54-501): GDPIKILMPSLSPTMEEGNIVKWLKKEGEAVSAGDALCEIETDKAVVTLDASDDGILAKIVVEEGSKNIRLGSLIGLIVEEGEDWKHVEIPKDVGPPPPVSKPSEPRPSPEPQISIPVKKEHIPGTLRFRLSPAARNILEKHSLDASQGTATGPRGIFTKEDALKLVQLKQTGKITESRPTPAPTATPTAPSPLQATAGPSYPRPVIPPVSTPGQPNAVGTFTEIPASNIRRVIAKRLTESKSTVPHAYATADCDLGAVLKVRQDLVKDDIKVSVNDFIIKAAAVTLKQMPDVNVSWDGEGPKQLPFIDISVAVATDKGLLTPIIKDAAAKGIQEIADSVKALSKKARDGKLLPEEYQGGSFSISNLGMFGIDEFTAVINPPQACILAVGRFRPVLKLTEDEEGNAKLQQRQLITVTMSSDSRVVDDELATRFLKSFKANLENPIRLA

[2] = target: T2, HeLa cell extract proteins (Homo sapiens, UniProt O95816)
T2 construct: endogenous in cells; host or cells: HeLa cell extract
T2 sequence (O95816 whole entry): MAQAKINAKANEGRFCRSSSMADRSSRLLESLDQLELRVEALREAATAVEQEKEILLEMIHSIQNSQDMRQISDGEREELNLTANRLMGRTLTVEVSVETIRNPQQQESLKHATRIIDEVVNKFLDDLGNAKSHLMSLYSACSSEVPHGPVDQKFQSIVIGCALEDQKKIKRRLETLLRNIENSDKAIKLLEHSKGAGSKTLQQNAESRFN

[3] = target: T3, HeLa cell extract proteins (Homo sapiens, UniProt P00338)
T3 construct: endogenous in cells; host or cells: HeLa cell extract

[4] = target: T4, HeLa cell extract proteins (Homo sapiens, UniProt P08865)
T4 construct: endogenous in cells; host or cells: HeLa cell extract

[5] = target: T5, HeLa cell extract proteins (Homo sapiens, UniProt P31153)
T5 construct: endogenous in cells; host or cells: HeLa cell extract
T5 sequence (P31153 whole entry): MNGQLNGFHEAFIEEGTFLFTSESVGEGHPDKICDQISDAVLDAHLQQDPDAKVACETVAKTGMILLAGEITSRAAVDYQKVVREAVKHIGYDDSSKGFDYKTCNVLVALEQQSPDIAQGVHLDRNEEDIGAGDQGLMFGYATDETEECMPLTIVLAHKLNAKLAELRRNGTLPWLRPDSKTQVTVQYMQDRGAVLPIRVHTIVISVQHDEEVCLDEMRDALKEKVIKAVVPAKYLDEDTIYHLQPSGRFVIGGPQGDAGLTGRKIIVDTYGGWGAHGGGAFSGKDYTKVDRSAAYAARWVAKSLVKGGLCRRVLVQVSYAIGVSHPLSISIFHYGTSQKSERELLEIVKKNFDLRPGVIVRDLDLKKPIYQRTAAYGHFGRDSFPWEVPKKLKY

[6] = target: T6, HeLa cell extract proteins (Homo sapiens, UniProt P37802)
T6 construct: endogenous in cells; host or cells: HeLa cell extract
T6 sequence (P37802 whole entry): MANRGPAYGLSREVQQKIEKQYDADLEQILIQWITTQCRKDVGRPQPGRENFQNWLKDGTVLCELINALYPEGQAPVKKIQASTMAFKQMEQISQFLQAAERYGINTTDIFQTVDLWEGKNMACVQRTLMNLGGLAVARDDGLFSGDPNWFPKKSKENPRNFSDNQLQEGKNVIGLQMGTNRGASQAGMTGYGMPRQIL

[7] = target: T7, HeLa cell extract proteins (Homo sapiens, UniProt P56192)
T7 construct: endogenous in cells; host or cells: HeLa cell extract
T7 sequence (P56192 1-900): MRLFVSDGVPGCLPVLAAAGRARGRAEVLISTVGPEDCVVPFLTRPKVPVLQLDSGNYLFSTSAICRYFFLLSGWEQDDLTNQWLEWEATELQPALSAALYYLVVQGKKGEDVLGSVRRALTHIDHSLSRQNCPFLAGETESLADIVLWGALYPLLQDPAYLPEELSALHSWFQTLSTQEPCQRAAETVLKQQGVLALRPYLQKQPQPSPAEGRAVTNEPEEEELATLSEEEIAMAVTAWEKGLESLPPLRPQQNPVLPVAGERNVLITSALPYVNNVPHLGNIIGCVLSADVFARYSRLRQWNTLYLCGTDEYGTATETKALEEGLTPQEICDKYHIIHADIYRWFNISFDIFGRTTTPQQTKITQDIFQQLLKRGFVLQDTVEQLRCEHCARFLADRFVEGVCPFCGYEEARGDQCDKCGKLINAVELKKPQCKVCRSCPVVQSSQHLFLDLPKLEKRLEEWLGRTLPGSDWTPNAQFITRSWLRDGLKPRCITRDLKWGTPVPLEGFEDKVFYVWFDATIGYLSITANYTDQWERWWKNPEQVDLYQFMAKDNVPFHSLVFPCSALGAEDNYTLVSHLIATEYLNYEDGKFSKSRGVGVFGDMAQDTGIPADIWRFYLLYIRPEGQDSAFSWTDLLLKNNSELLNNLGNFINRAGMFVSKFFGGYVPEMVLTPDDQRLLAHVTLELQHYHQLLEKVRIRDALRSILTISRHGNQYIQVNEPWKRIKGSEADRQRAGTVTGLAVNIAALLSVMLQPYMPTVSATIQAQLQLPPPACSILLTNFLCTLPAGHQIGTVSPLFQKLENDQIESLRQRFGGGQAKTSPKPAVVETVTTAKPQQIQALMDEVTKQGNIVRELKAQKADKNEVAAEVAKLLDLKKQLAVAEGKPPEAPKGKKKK

[8] = target: T8, HeLa cell extract proteins (Homo sapiens, UniProt P61604)
T8 construct: endogenous in cells; host or cells: HeLa cell extract
T8 sequence (P61604 whole entry): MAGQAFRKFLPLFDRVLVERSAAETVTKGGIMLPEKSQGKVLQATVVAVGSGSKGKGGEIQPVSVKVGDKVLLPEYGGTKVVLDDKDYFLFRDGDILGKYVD

[9] = target: T9, HeLa cell extract proteins (Homo sapiens, UniProt P63244)
T9 construct: endogenous in cells; host or cells: HeLa cell extract

[10] = target: T10, HeLa cell extract proteins (Homo sapiens, UniProt P68366)
T10 construct: endogenous in cells; host or cells: HeLa cell extract
T10 sequence (P68366 whole entry): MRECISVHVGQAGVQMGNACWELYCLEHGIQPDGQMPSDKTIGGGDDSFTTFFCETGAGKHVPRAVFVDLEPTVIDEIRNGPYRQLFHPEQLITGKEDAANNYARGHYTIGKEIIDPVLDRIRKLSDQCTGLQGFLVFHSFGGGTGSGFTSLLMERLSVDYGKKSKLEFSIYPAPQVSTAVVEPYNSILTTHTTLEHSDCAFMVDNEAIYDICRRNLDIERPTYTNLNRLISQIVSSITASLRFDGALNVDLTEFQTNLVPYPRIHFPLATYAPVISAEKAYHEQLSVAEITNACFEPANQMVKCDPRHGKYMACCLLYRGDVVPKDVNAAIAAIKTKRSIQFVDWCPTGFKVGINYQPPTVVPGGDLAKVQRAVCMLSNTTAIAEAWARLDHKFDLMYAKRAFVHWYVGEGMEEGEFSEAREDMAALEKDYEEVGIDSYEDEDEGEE

[11] = target: T11, HeLa cell extract proteins (Homo sapiens, UniProt Q00839)
T11 construct: endogenous in cells; host or cells: HeLa cell extract
T11 sequence (Q00839 whole entry): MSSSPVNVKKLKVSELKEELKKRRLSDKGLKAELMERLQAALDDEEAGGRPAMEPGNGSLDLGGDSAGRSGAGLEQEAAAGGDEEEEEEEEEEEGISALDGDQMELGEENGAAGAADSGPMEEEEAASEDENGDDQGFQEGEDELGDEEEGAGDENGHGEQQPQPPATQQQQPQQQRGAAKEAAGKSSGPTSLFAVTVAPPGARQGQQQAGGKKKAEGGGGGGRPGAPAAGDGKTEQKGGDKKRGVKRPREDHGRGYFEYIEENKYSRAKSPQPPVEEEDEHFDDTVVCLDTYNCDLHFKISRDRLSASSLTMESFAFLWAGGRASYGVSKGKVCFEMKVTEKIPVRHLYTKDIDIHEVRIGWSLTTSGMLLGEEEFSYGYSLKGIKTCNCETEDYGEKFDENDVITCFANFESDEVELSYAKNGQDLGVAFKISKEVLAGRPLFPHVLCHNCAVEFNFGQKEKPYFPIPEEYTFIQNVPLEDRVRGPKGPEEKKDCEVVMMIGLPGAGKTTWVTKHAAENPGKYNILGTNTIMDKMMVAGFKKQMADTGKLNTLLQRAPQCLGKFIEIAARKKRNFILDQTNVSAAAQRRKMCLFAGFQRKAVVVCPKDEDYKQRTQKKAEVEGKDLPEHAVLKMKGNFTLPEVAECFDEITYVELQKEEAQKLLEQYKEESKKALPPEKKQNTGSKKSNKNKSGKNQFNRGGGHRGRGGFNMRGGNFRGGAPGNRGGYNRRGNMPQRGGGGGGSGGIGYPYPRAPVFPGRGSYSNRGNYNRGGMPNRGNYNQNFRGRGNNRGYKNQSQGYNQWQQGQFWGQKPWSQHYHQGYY

[12] = target: T12, HeLa cell extract proteins (Homo sapiens, UniProt Q9GZT8)
T12 construct: endogenous in cells; host or cells: HeLa cell extract
T12 sequence (Q9GZT8 1-377): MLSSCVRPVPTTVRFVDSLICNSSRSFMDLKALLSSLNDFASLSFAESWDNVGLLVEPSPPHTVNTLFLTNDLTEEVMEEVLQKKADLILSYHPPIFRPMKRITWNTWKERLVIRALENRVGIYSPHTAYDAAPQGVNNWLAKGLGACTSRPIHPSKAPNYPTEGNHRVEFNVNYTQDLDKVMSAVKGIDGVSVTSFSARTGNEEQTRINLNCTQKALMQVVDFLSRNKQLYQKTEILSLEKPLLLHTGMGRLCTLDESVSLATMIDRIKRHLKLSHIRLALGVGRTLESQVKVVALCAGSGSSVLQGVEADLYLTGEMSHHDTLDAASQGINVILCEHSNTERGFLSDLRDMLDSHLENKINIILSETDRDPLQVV

[13] = HeLa, protein PDHX (PYRUVATE DEH[…] X COMPONENT, MIT[…])
[14] = HeLa, protein LDHA (ISOFORM 1 OF L-LACTATE DEHYDROGENASE A CHAIN.)

| SMILES | fold changes relative to vehicle control ([2]; HeLa, protein BAG2) | fold changes relative to vehicle control ([3]; HeLa, protein LDHA) | fold changes relative to vehicle control ([4]; HeLa, protein RPSA) | fold changes relative to vehicle control ([5]; HeLa, protein MAT2A) | fold changes relative to vehicle control ([6]; HeLa, protein TAGLN2) | fold changes relative to vehicle control ([7]; HeLa, captured protein MARS) | fold changes relative to vehicle control ([8]; HeLa, protein HSPE1) | fold changes relative to vehicle control ([9]; HeLa, protein GNB2L1) | fold changes relative to vehicle control ([10]; HeLa, protein TUBA4A) | fold changes relative to vehicle control ([11]; protein HNRNPU, HeLa) | fold changes relative to vehicle control ([12]; protein NIF3L1, HeLa) | fold changes relative to vehicle control ([1]; protein PDHX, HeLa) | fold changes relative to vehicle control ([2]; captured protein BAG2, HeLa) | fold changes relative to vehicle control ([4]; captured protein RPSA, HeLa) | fold changes relative to vehicle control ([5]; protein MAT2A, HeLa) | fold changes relative to vehicle control ([6]; protein TAGLN2, HeLa) | fold changes relative to vehicle control ([7]; captured protein MARS, HeLa) | fold changes relative to vehicle control ([8]; protein HSPE1, HeLa) | fold changes relative to vehicle control ([10]; captured protein TUBA4A, HeLa) | fold changes relative to vehicle control ([11]; HeLa, protein HNRNPU) | other results |
| --- | --- | --- | --- | --- | --- | --- | --- | --- | --- | --- | --- | --- | --- | --- | --- | --- | --- | --- | --- | --- | --- |
| Nc1nc2c(c(=O)[nH]1)N(C=O)C(CNc1ccc(C(=O)N[C@@H](CCC(=O)O)C(=O)O)cc1)CN2 (stereo partly drawn) [LEU, leucovorin] | 0.96 | 1.07 | 0.87 | 0.99 | 0.97 | 0.92 | 1.16 | 1.08 | 0.9 | 0.8 | 0.95 | – | – | – | – | – | – | – | – | – | fold changes relative to vehicle control [1, 13]: 1.05 |
| Nc1nc2[nH]cc(CCc3ccc(C(=O)N[C@@H](CCC(=O)O)C(=O)O)cc3)c2c(=O)[nH]1 [PTX, pemetrexed] | – | – | – | – | – | – | – | – | – | – | – | – | – | – | – | – | – | – | – | – | fold changes relative to vehicle control [1]: 0.98; fold changes relative to vehicle control [2]: 0.95; fold changes relative to vehicle control [3]: 1.15; fold changes relative to vehicle control [4]: 0.9; fold changes relative to vehicle control [5]: 1.07; fold changes relative to vehicle control [6]: 1.18; fold changes relative to vehicle control [7]: 0.93; fold changes relative to vehicle control [8]: 1.42; fold changes relative to vehicle control [9]: 1.08; fold changes relative to vehicle control [10]: 0.83; fold changes relative to vehicle control [11]: 0.92; fold changes relative to vehicle control [12]: 0.9 |
| CCCCCCOc1ccc(Cc2cnc(N)nc2N)cc1 [compound 1] | – | – | – | – | – | – | – | 1.12 | – | – | – | 1 | 0.9 | 0.97 | 1.21 | 1.17 | 0.74 | 1.38 | 0.95 | 0.88 | fold changes relative to vehicle control [3, 14]: 1.48 fold; fold changes relative to vehicle control ([12]; captured protein NIF3L1, HeLa): 0.5 |
| CCCCCCOc1cccc(Cc2cnc(N)nc2N)c1 [compound 2] | – | – | – | – | – | – | – | 1.19 | – | – | – | 0.43 | 1.15 | 1.11 | 1.55 | 1.66 | 1.07 | 2.39 | 0.88 | 1.2 | fold changes relative to vehicle control [3, 14]: 2.61 fold; fold changes relative to vehicle control ([12]; captured protein NIF3L1, HeLa): 0.97 |
| Nc1nc2cccc(-c3ccccc3)c2n1Cc1ccc(Cl)c(Cl)c1 [compound 3] | – | – | – | – | – | – | – | 1.12 | – | – | – | 1.12 | 0.88 | 1.09 | 1.01 | 0.85 | 0.93 | 0.85 | 1.01 | 0.96 | fold changes relative to vehicle control ([3]; HeLa, protein LDHA (ISOFORM 1 OF L-LACTATE DEH[…] CHAIN.)): 0.92 fold; fold changes relative to vehicle control ([12]; captured protein NIF3L1, HeLa): 0.98 |
| NCCOCCOCC(=O)Nc1nc2ncc(CNc3ccc(C(=O)NC(CCC(=O)O)C(=O)O)cc3)nc2c(=O)[nH]1 (stereo not drawn) [compound 6] | 0.97 | 1.23 | 0.97 | 1.16 | 1.2 | 1.01 | 1.69 | 1.12 | 0.98 | 1.18 | 0.25 | – | – | – | – | – | – | – | – | – | fold changes relative to vehicle control ([1]; HeLa, protein PDHX (PYRUVATE DEHYDROGENASE PROTEIN X COMPONENT, MITOCHONDRIAL PRECURSOR)): 0.92 |
| NCCCNc1ccc(C(=O)NC(CCC(=O)O)C(=O)O)cc1 (stereo not drawn) [compound 7] | 0.97 | 0.95 | 0.84 | 1 | 0.92 | 0.94 | 1.15 | 0.99 | 0.99 | 1.04 | 0.94 | – | – | – | – | – | – | – | – | – | fold changes relative to vehicle control [1, 13]: 1.02 |
